From PMC12040169 (PLOS Biology, 2025)

assay: in vitro; conditions: human, hela cells, % viability

Compound | viability at 28.5 h, 10 µM
Cc1nc(S(=O)(=O)Cc2nccn2C)n(CC2CCCO2)c1C (stereo not drawn) [CBK304012] | 87%
FC(F)(F)c1ccc(-c2nnc(C3CC3)o2)cc1 [CBK021992] | 86.7%
Clc1ccc(C2(N3CCC(N4CCOCC4)CC3)CC2)cc1 [CBK282722] | 90.8%
NC(=O)N/N=C/COc1cccc(C(F)(F)F)c1 [CBK022736] | 102%
O=C(O)COc1ccc2c(=O)c(Oc3ccc(Cl)cc3)c(C(F)(F)F)oc2c1 [CBK296087] | 119%
COc1ccc(C(=O)C(C)OC(=O)c2ccc3ccccc3n2)cc1 (stereo not drawn) [CBK111937] | 99%
COc1ccc(C)cc1CN(C)C(=O)c1cccc(NC(=O)C2CC2)c1 [CBK305414] | 98.5%
CN(C)c1ccc(-c2noc([C@@H]3CCCN3C)n2)cn1 [CBK288902] | 104%
O=C(O)Cn1cc(C(C(=O)O)N2CCN(c3ccccc3)CC2)c2ccccc21 (stereo not drawn) [CBK286625] | 78.1%
O=C(CCn1cnc2ccccc2c1=O)Nc1ccc(S(=O)(=O)N2CCOCC2)cc1 [CBK267645] | 98.9%
Cc1nc2c(OCC3CCCCC3)cccn2c1N(C)CC1CC1 [CBK147279] | 97.2%
O=C(Cc1ccccc1)N1CCN(C(=O)c2ccco2)CC1 [CBK068325] | 93.4%
C=Cn1ncc(CN2CCN(C3CCCCC3)C(=O)C2)c1C [CBK282526] | 107%
O=C(O)c1nn(-c2ccccc2)c2cc([N+](=O)[O-])ccc12 [CBK006532] | 95%
CCC1CCCCN1C(=O)Cc1c(C)nc(-c2cccnc2)[nH]c1=O (stereo not drawn) [CBK306240] | 91.6%
CCOc1ccc(CNCc2ccc(C(=O)O)cc2)cc1OC [CBK269590C] | 87.3%
O=C(Nc1ccccc1)c1ccccc1OCc1ccc(S(=O)(=O)N2CCOCC2)cc1 [CBK267396] | 92.8%
O=C(c1cccc([N+](=O)[O-])c1)N1CCN(S(=O)(=O)N2CCOCC2)CC1 [CBK267469] | 100%
CN(C)CCNC(=O)C(=O)Nc1ccc(Cl)cc1 [CBK266965] | 107%
CC(=O)c1cc2c(N)c(C(N)=O)sc2nc1C [CBK100769] | 102%
NC(=O)c1ccccc1NC(=O)CN(c1cccc(Br)c1)S(=O)(=O)c1ccccc1 [CBK265263] | 92.1%
O=C(c1ccc(-c2ccoc2)nc1)N1CCCC1 [CBK156284] | 84.6%

Compound | viability at 28.5 h, 10 µM
COC(=O)CNC(=O)c1ccc(S(=O)(=O)N2CCCC2)cc1 [CBK264880] | 88.4%
Fc1ccc(-c2cn3ccnc3c(NC3CC3)n2)cc1F [CBK066692] | 101%
CSc1ccc(-c2nc(NC(=O)C(C)C)cc3cccnc23)cc1 [CBK081262] | 100%
COC(=O)[C@@H](C)NC(=O)[C@@H]1CN(C(=O)c2cccc(F)c2)CCN1C(=O)C1CCCCC1 [CBK289621] | 87.4%
Cn1c(CN2CCCC2)nc2cc(NC(=O)c3cccc([N+](=O)[O-])c3)ccc21 [CBK268316] | 98.6%
CN(C)CCNc1nc(-c2cccnc2)nc2ccccc12 [CBK264471C] | 99.7%
CC(=O)NCCSc1ncccc1C(F)(F)F [CBK105296] | 101%
Clc1ccc(CN2CCCN(c3cc(OC4CCCCC4)ncn3)CC2)cc1Cl [CBK083338T] | 79.5%
Cc1ccc(NS(=O)(=O)c2cccc(C(=O)NS(=O)(=O)c3ccc(F)cc3F)c2)cc1 [CBK297776] | 70.5%
COCCN(C(=O)c1cc2cc(C)ccc2s1)C1CCS(=O)(=O)C1 (stereo not drawn) [CBK304289] | 87.3%
O=C1COc2ccccc2C/C=C/C[C@H]2CNCC[C@H]2N1 [CBK292033] | 101%
N#Cc1sc2nc(-c3ccncc3)ccc2c1N [CBK288547] | 78.3%
CCOc1cc(/C=N/NC(=O)c2cncc(Br)c2)c(Br)c(Br)c1O [CBK261386] | 86.3%
O=P(O)(O)Cc1ccccc1-c1ccccc1 [CBK012659] | 111%
CSc1ccc(-c2nc(C)c(C(C)=O)n2O)cc1 [CBK288356] | 92.5%
CCN1CCc2cc(-c3cncn3CC(=O)NC(C)(C)C)ccc21 [CBK281698] | 94.8%
CC1(C)CC(=O)C2=C(C1)c1c(ccc3ccccc13)NC2c1ccc(N2CCC(Cc3ccccc3)CC2)c([N+](=O)[O-])c1 (stereo not drawn) [CBK262944] | 94.2%
COc1ccc(OCCN2C(=O)CNC2=S)cc1 [CBK007177] | 77%
COc1ccc(-c2nccnc2NCCCN(C)C)cc1 [CBK037671] | 93.9%
Cc1nc2cc(OCc3ccc(Cn4ccn(C(=O)CCC5CCCC5)c4=O)cc3)ccc2s1 [CBK106641] | 115%
Cc1nc(COc2ccc(C(=O)Nc3ccc(C(=O)O)cc3C)cc2)cs1 [CBK295360] | 91.3%
COc1ccc(NC(=O)CSc2cnn[nH]2)c(OC)c1 [CBK269969] | 76.7%

Compound | viability at 28.5 h, 10 µM
CC(=O)CCc1oc2c([N+](=O)[O-])cccc2c1-c1ccc(C)o1 [CBK262476] | 89.4%
O=C(Cc1ccc(Cl)c(Cl)c1)N1CCN(C(=O)c2ccco2)CC1 [CBK144454] | 95.2%
Cc1ccc(Cl)c(OCc2nnc(SCC(=O)O)n2N)c1 [CBK268992] | 105%
Cc1nc2nc(-c3ccc(F)cc3F)cn2nc1C [CBK284564] | 90.3%
CCOC(=O)CN1C(c2ccccc2O)Nc2ccc(Br)cc2C1c1ccccc1 (stereo not drawn) [CBK263130] | 90.5%
O=c1c2[nH]c3ccccc3c2ncn1Cc1ccccc1 [CBK287809] | 103%
CN1CCN(CC2(CNC(=O)c3ccc(C(=O)O)cc3)CC2)CC1 [CBK307517] | 102%
Nc1ncn(Cc2ccccc2)c2nc(SCc3ccccc3)nc1-2 [CBK025744] | 106%
CCOC(=O)c1c(NC(=O)CSc2nnnn2C)sc2c1CCCC2 [CBK007332] | 103%
CCN(CC(=O)N1CCN(C)CC1)S(=O)(=O)c1cc(Cl)ccc1Cl [CBK269297] | 104%
O=C(c1cnn(-c2ccc(Cl)cc2Cl)c1)N1CCOCC1c1ncon1 (stereo not drawn) [CBK304231] | 84.5%
O=C(CN1CCSCC1)NNC(=S)Nc1ccccc1 [CBK262445] | 102%
CCCC(=O)Nc1ccc(-c2csc(CCN3CCOC3=O)n2)cc1 [CBK305687] | 97%
COCC(=O)N[C@H]1CCN2C(=O)c3cc(-c4ccccc4F)ccc3NC(=O)[C@@H]2C1 [CBK289553] | 95.6%
CC(Sc1ccc(Cl)cc1)C(=O)NCCN1CCOCC1 (stereo not drawn) [CBK269316] | 111%
O=C(CSc1nnc(-c2cccnc2)n1Cc1ccccc1)NCc1ccccc1 [CBK111647] | 95.7%
COc1ccc2c(c1)c1nc(C)sc1n2CCN1CCCCC1 [CBK269909C] | 93.3%
CCCn1c(SC(C)C(=O)N2CCOCC2)nc2ccc(Br)cc2c1=O (stereo not drawn) [CBK305020] | 92.2%
COCc1nc2ccccc2n1CC(=O)N1CCC(c2ccccc2)C1 (stereo not drawn) [CBK282211] | 97.1%
N#Cc1ccc(SCCOC(=O)c2cccs2)c([N+](=O)[O-])c1 [CBK066853] | 99%
Cc1ccc(S(=O)(=O)Nc2ccccc2CNc2ccccn2)cc1 [CBK264198] | 91.9%
O=C(NC1CCCOC1)c1cc(-c2cccs2)no1 (stereo not drawn) [CBK282565] | 82%

Compound | viability at 28.5 h, 10 µM
Cc1nnc(SCCn2c(N3CCCCC3)nc3c2c(=O)n(C)c(=O)n3C)s1 [CBK269288] | 103%
CN(C)CCN(C)c1nc(-c2ccccc2F)cn2ccnc12 [CBK037406] | 99.8%
Cn1c2ccccc2c2cc(/C=C(/NC(=O)c3ccccc3)C(=O)Nc3cccc(O)c3)ccc21 [CBK261449] | 111%
Nc1nonc1C(=O)NCCNc1ccc([N+](=O)[O-])cn1 [CBK268279] | 97.7%
CN(CC(=O)NC1CCCCC1)S(=O)(=O)c1ccc(F)cc1 [CBK091832] | 98.6%
c1ccc2c(c1)oc1cccc(-c3cc(NCCc4c[nH]cn4)ncn3)c12 [CBK037708] | 94.6%
O=C1N2CCSC2=NC1(Nc1nccs1)C(F)(F)F (stereo not drawn) [CBK267484] | 84.1%
NC(=O)c1cccc(-n2ncc(-c3cccnc3)n2)c1 [CBK112806] | 81.6%
O=C(COc1ccc(Cl)cc1Cl)Nc1ccc2cc[nH]c2c1 [CBK160023] | 92.5%
O=C(O)C1CCCN(C(=O)CCc2c[nH]c3ccccc23)C1 (stereo not drawn) [CBK286925] | 88.6%
CN1CC(CO)CCC1Cc1c[nH]c2ccccc12 (stereo not drawn) [CBK011468] | 92.4%
CCOCC(=O)N(C)C(CO)c1cc(OC)ccc1Br (stereo not drawn) [CBK304722] | 90%
CN(C)CCO/N=C1\CC2(CCCC2)c2ccc(Cl)cc21 [CBK013334] | 78.1%
O=C(c1ccc(F)cc1)N1CCN(c2ccccn2)CC1 [CBK287795] | 104%
Cc1cccnc1C(c1ccc(F)cc1)N(C)C(=O)C1CCN(C(=O)OCc2ccccc2)CC1 (stereo not drawn) [CBK060095] | 116%
CN1CCCC(NC(=O)CCCOc2ccccc2F)C1 (stereo not drawn) [CBK282072] | 101%
Cc1nc(Oc2ccccc2)c2c3c(sc2n1)CCCC3 [CBK131919] | 101%
O=C1CCC(C(=O)N2CCCC(c3cc4ccccc4cn3)C2)CC1 (stereo not drawn) [CBK284989] | 102%
Nc1n[nH]c(=O)c2ncn([C@H]3C[C@@H](O)[C@@H](CO)O3)c12 [CBK201233] | 91.4%
Cc1cc(=O)[nH]c(N/N=C/c2ccc(Cl)cc2Cl)n1 [CBK024387] | 95.8%
CCN(CC(=O)NC(C)C)Cc1nc(-c2cccc(C(F)(F)F)c2)no1 [CBK306039] | 88.6%
CC(C)(O)c1cc(CC2(NCc3ccco3)COC2)no1 [CBK289255] | 92.6%

same assay, conditions: human, hela cells, % viability, bulk resorufin, single well

Compound | viability at 28.5 h, 10 µM
Fc1ccc(-c2ccc3c(c2)COC2(CCNCC2)O3)c(F)c1 [CBK060917] | 96%
O=C1NC(=O)C(CCc2ccccn2)(CCc2ccccn2)C(=O)N1c1cccc(C(F)(F)F)c1 [CBK269021] | 99.8%
